Results on eight molecules are retold here after US5229413A, “Compositions containing indole-2-carboxylate compounds for treatment of CNS disorders” (G. D. Searle & Co., priority 1992, dated 1993).

Each structure is given as a SMILES string. Read-outs that look alike come from different tables or passages of the source.

As usually defined, the IC50 is the concentration that gives 50% inhibition. High values mean a need for much substance, low ones inhibition by little substance.

Experiment [1] deals with N-methyl-D-aspartate (NMDA) receptor site. The experiment is described as follows: Glutamate (NMDA) binding assay, L-[3H]glutamate, synaptic plasma membranes. To be noted: L-[3H]glutamate 12.5 nM, pH 7.4, 0-4° C.; read-out: Ki apparent, NMDA. The protocol:
The purpose of this assay is to determine the binding affinity of a compound of Formula I for the N-methyl-D-aspartate (NMDA) receptor site. This procedure was carried out as follows:
Synaptic plasma membranes (SPM) were prepared as previously described [Monahan, J. B. and Michel, J., "Identification and Characterization of an N-methyl-D-aspartate-specific L-[^3 H]glutamate Recognition Site in Synaptic Plasma Membranes, J. Neurochem., 48, 1699-1708 (1987)]. The SPM were stored at a concentration of 10-15 mg/ml in 0.32 M sucrose, 0.5 mM EDTA, 1 mM MgSO4, 5 mM Tris/SO4, pH 7.4, under liquid nitrogen. The identity and purity of the subcellular fractions were confirmed by both electron microscopy and marker enzymes. Protein concentrations were determined by using a modification of the method of Lowry [Ohnishi, S. T. and Barr, J. K., "A Simplified Method of Quantitating Proteins Using the Biuret and Phenol Reagents", Anal. Biochem., 86, 193-197 (1978)]. The SPM were thawed at room temperature, diluted twenty-fold with 50 mM Tris/acetate, pH 7.4, incubated at 37° C. for 30 minutes, and centrifuged at 100,000 g for 15 minutes. The dilution, incubation, and centrifugation was repeated a total of three times. This general method involved adding 12.5 nM of the L-[^3 H]glutamate radioligand to the appropriate concentration of the test compound and initiating the assay by the addition of ice cold SPM (0.2-0.45 mg). The binding assays were performed in 1.5 ml centrifuge tubes with the total volume adjusted to 1.0 ml. Additions of test compounds were made in 50 mM Tris/acetate, pH 7.4 and incubations were carried out at 0°-4° C. The incubation time for the NMDA binding assay was 10 minutes. To terminate the incubation, the samples were centrifuged for 15 minutes at 12,000 g and 4° C. in a Beckman Microfuge 12. The supernatant was aspirated and the pelleted membranes dissolved in Beckman Ready-Protein scintillation cocktail and the samples counted on a Beckman LS 5800 or 3801 liquid scintillation counter with automatic corrections for quenching and counting efficiency. Nonspecific binding was defined as the residual binding in the presence of 0.5 mM NMDA and was typically 15-25% of the total binding in the NMDA binding assay. Radioligand binding to the SPM was analyzed using Scatchard and Hill transformations and the Ki values of the compounds determined using logit-log transformations. Calculations and regression analysis were performed using templates developed for Lotus 1, 2, 3 as previously described [Pullan, L. M. "Automated Radioligand Receptor Binding Analysis with Templates for Lotus", Computer Appln. Biosci., 3 131 (1987)]. Binding results are reported in Table II for example compounds of the invention.

Experiment [2] deals with T1, strychnineinsensitive glycine recognition site (NMDA receptor-ion channel complex) (Rattus norvegicus, UniProt P35439).
T1 construct: Synaptic plasma membranes (SPM) were prepared from rat forebrain; from tissue; host or cells: rat forebrain synaptic plasma membranes
The experiment is described as follows: Glycine binding assay, [3H]glycine, synaptic plasma membranes. The protocol: Synaptic plasma membranes (SPM) were prepared from rat forebrain and stored as previously described [J. B. Monahan and J. Michel, J. Neurochem, 48, 1699-1708 (1987)]. Frozen membranes were thawed and diluted 1:20 with 0.04% triton X-100 in 50 mM tris/acetate (pH 7.4). Following incubation at 37° C. for 30 min., the SPM were collected by centrifugation at 95,000 X g for 15 min. The pellet was resuspended in 50 mM tris/acetate (pH 7.4, triton-free) and hand-homogenized five times. The membranes were again centrifuged as above. The pellet was washed two additional times with 50 mM tris/acetate (without homogenization) and centrifuged. The final pellet was resuspended with homogenization in 50 mM tris/acetate.
In the general receptor binding assay procedure, 10 nM [^3 H]glycine was added to the appropriate concentration of the test compounds and the assay initiated by the addition of 0.2-0.4 mg of ice cold SPM. The assay, which was done in 1.5 ml centrifuge tubes, was adjusted to a total volume of 1.0 ml with all additions being made in 50 mM tris/ acetate, pH 7.4 at 4° C. After a 10 minute incubation at 2° C., the samples were centrifuged for 15 min. at 12,000 g (4° C.) in a Beckman Microfuge 12. The supernatant was aspirated and the tube tip containing the pelleted membranes cut off and agitated in 0.5 ml of Beckman BTS-450 tissue solubilizer for a minimum of 6 hours at room temperature. Beckman MP scintillation cocktail (5 ml) containing 7 ml/liter acetic acid was then added and the samples counted on a Beckman LS 5800 liquid scintillation counter with automatic corrections for quenching and counting efficiency. […] The binding of [^3 H]glycine to the SPM was analyzed using Scatchard and Hill transformations and the Ki for other compounds was determined using logit-log analysis. Calculations and regression analysis were performed using templates developed for Lotus 123 as previously described [Pullan et al, Id.].

The target in experiment [3] is T2, NMDA receptor (rat brain receptor expressed in Xenopus oocytes) (Rattus norvegicus, UniProt P35439).
T2 construct: PolyA+ RNA (mRNA) was extracted from adult male rat cortex; expressed in transfected cells; host or cells: Xenopus laevis oocytes microinjected with rat cortex poly(A)+ RNA
The experiment is described as follows: Xenopus oocytes injected with rat cortex mRNA, blocking of glycine effects (voltage clamp). To be noted: 100 μM NMDA. Format: cell-based. Here is the method: PolyA+ RNA (mRNA) was extracted from adult male rat cortex using the refined guanidinium thiocyanate method developed by Han et al [J. H. Han et al., Biochemistry, 26, 1617-1625 (1987)] and the oligo (dT) cellulose chromatography procedure of Adiv and Leder [H. Aviv et al., Proc. Nat. Acad. Sci., 69, 1408-1412 (1972)]. Aliquots of mRNA (1.0 mg/ml water) were stored at -20° C.
Gravid adult female Xenopus laevis (Xenopus One, Ann Arbor, Mich. or NASCO, Ft. Atkinson, Wis.) were anaesthetized with 0.2% (w/v) Tricaine (3-amino benzoic acid ethyl ester; Sigma) and subjected to partial ovarectomy. Excised oocytes were then prepared and microinjected [N. W. Kleckner et al, Science 241 835-837 (1988)]. Oocytes were treated for one hour in Barth's solution (88.0 mM NaCl, 1.0 mM KCl, 2.4 mM NaHCO3, 0.41 mM CaCl2, 0.82 mM MgSO4, 10.0 μg/ml penicillin, 100.0 μg/ml streptomycin, 10.0 mM HEPES, pH 7.5) containing 1.5 mg/ml Neutral Protease (Beohringer Mannheim Biochemicals, Grade II). Oocytes were then placed in Barth's solution containing 100.0 mM sucrose and manually defolliculated with fine forceps. Defolliculated oocytes were then microinjected with approximately 50 ng of mRNA in Barth's solution at 16°-18° C.
Oocytes were assayed 2-8 days later for rat brain receptor expression via single electrode voltage. clamp (Axoclamp 2A, Axon Instruments) in a manner similar to that previously described [Kleckner et al, Id.]. […] Drugs were added to the perfusate and inward currents induced by agonist compounds were measured at peak steady state response. […] Antagonist compounds were perfused for a minimum of 3.0 minutes prior to subsequent agonist co-application. Data are expressed as percent maximal response (mean±S.E.M.). Half-maximal responses (EC50 's) and slopes for dose response data were determined from the least squares fit to the logistic regression equation.

The subject of the next experiment is Cerebellar cGMP. In words: Assay for effect on cGMP (cerebellum, intracisternal injection). Format: in vivo, Swiss Hausche mice. To be noted: D-Serine (100 μg) alone, ± SEM. The protocol:
Male Swiss Hausche mice (25-30 g) were injected intracisternally (i.c.t.) with glycine agonists 10 minutes prior to sacrifice by focussed microwave irradiation. Compounds of the invention were injected intracisternally 2 minutes prior to the agonist. For intracisternal injections, al agonists were dissolved in HCl and diluted with isotonic saline prior to adjustment of the pH to between 6 and 7 with NaOH. The compounds of the invention were dissolved in isotonic saline and all compounds were administered in a volume of 5 μl.
Hydrochloric acid in extracts of the cerebellum were freeze-dried for assay of cGMP with a commercial RIA kit (NEN). Protein determinations (Lowery) and statistics (Dunett's t-test) were performed as described previously [P. L. Wcod et al., Neurochem., 19, 975-982 (1980)]. Groups consisted of 7-10 mice.

The subject of the next experiment is NMDA receptor. To be noted: cited from earlier work; for reversal of NMDA antagonist activity / blocking effect by glycine: presence of glycine.
The subject of another experiment is hippocampal slice. In words: Epileptic hippocampal slice, 0% Mg+2-induced epilepsy. Format: cell-based, Sprague-Dawley albino rat. To be noted: Rattus norvegicus, 300 μM Compound No. 35, 0% Mg+2. An excerpt: Hippocampal slices (450 μ) were obtained from male Sprague-Dawley albino rats (100-325 g). The method of slice preparation has been detailed elsewhere [A. H. Ganong et al., Brain Res., 273, 170-174 (1983)]. Slices were stored in a humidified interface chamber at room temperature and bathed in artificial cerebrospinal fluid (ACSF) which contained (in mM): NaCl 124.0, KCl 5.0, KH2 PO4 1.0, NaHCOP3 26.4, CaCl2, 2.0, MgSO4 1.5 and D-glucose 10.0, and was equilibrated with 95% 02:5% CO2. When needed for study, slices were placed one at a time in a small submersion chamber maintained at 35° C. where they were continuously perfused at 1.0-2.0 ml/min. Fresh solutions reached the recording chamber within 20 seconds and the perfusate was completely changed over within a minute. Additional oxygen and stirring was provided by an air jet (95% O2 :5% CO2) directed at the surface of the ACSF. Standard electrophysiological techniques were employed. Extracellular recording electrodes were glass micropipettes filled with 2.0 M NaCl and broken back to 2.0 m.OMEGA. resistance. All recording was from the somatic region of CA1. […] Intracellular recording electrodes of 60-100 MQ resistance were filled with 2.5 M KAc. […] The Schaffer collateral/commissural fibers were stimulated with tungsten bipolar stimulating electrodes at a rate of 0.03 Hz. The resulting field EPSP (S/C-CA1 EPSP) and the DC potential were amplified by an Axoprobe 1 amplifier and were continuously monitored on a Tektronix 5111A storage oscilloscope and a Gould 2300 chart recorder with a Gould Waveform storage module. Epileptiform activity was induced by omission of Mg++ ions from the perfusate, which removes the Mg++ mediated voltage-dependent block of the NMDA. receptor [B. Ault et al., J. Physiol., 307, 413-428 (1980)], or by the addition of the GABA antagonist picrotoxin. Drugs were added to the perfusate and zero magnesium refers to solutions which contain no added magnesium. The amplitude of the stimulus evoked primary population spike was used to assess the effects of experimental manipulations on the efficacy of synaptic function.

[4] abbreviates: 10 nM [3H]glycine, pH 7.4, rat forebrain SPM, read-out: Ki apparent, Gly.
Where [5] appears, read: IC50, 1.0 μM Gly, 1.0 μM glycine.

As for `CCOC(=O)Cc1c(C(=O)O)[nH]c2cc(Cl)ccc12` [compound 31, ethyl 2-carboxy-6-chloro-3-indoleacetate], the values for the Ki in experiment [1] and in experiment [2] (setting [4]) were > 100 µM and 0.47 µM, respectively. Besides, the IC50 worked out at 1.6 ± 0.01 µM in experiment [3] (setting [5]) and 16.1 ± 1.4 µM in experiment [3] (IC50, 10 μM Gly, 10 μM glycine).
Regarding `NC(=O)Cc1c(C(=O)O)[nH]c2cc(Cl)ccc12` [compound 37, 2-carboxy-6-chloro-3-indoleacetamide], in experiment [2] (setting [4]), the Ki came to 1.2 µM. Further, in experiment [3] (setting [5]), half-maximal inhibition (IC50) was put at 3.4 ± 0.9 µM.
As for `N[C@H](CO)C(=O)O` [D-Serine, reference compound], the “Cerebellar cGMP” value in the experiment on Cerebellar cGMP is 17.5 ± 2.4 pmol/mg protein.
As to `O=C(O)c1cc(O)c2ccc(Cl)cc2n1` [7-chlorokynurenic acid], in the experiment on NMDA receptor, the NMDA antagonist activity entry is given as “NMDA antagonist” and the “reversal of NMDA antagonist activity / blocking effect by glycine” value is given as “blocking effect can be reversed by glycine”.
For the molecule `CC(C)OC(=O)Cc1c(C(=O)O)[nH]c2cc(Cl)ccc12` [Compound No. 35, 2-propyl 2-carboxy-6-chloro-3-indoleacetate], the Ki in experiment [2] (setting [4]) worked out at 3.9 µM. In addition, the IC50 was determined as 4.5 ± 0.5 µM in experiment [3] (setting [5]) and 68.5 ± 13.5 µM in experiment [3] (IC50, 10 μM Gly, 10 μM glycine). Moreover, the activity at 300 µM came out at 19.2% in the experiment on hippocampal slice (read-out: Burst duration), 82.1% with hippocampal slice (read-out: Primary population spike amplitude), 0% with hippocampal slice (read-out: Spontaneous activity) and 35.6% in the experiment on hippocampal slice (read-out: Sum of additional population spike amplitude).
On to `O=C(O)c1cc2ccccc2[nH]1` [compound 13, indole-2-carboxylic acid], for which the Ki in experiment [1] and in experiment [2] was > 100 µM throughout.
For `O=C(O)c1cc(O)c2ccccc2n1` [kynurenic acid, 2-carboxy-4-hydroxyquinoline], in the experiment with NMDA receptor, the NMDA antagonist activity result is on record as “known NMDA antagonist” and the “reversal of NMDA antagonist activity / blocking effect by glycine” value was “can be reversed by the presence of glycine”.
With `Cn1c(C(=O)O)c(CC(=O)O)c2ccccc21` [compound 2, 2-carboxy-1-methyl-3-indoleacetic acid], the Ki in experiment [1] and in experiment [2] (setting [4]) was > 100 µM in each case.
